Laboratory results from patent US8952024B2, “Herbicidal pyrimidone derivatives” (E I du Pont de Nemours and Company, priority 2009, dated 2015).

Experiments:
Format in all cases: in vivo
[1] = tested on: windgrass (Apera spica-venti); experiment: Test B postemergence plant response
How it was run: (§1)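 Plants at the 1- to 4-leaf stage (2 to 18 cm tall), grown in pots of peat moss/vermiculite medium with wetting agent and starter nutrients, received postemergence applications of test chemicals. After 13 to 15 days in a greenhouse, injury was rated visually against untreated controls on a 0 (no effect) to 100 (complete control) scale.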

[2] = tested on: chickweed (Stellaria media); experiment: Test B postemergence plant response
How it was run: as §1

[3] = tested on: canarygrass (Phalaris minor); experiment: Test B postemergence plant response
How it was run: as §1

[4] = tested on: pigweed (Amaranthus retroflexus); experiment: Test B pre-/postemergence plant response
How it was run: (§2)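 Seeds sown in loam–sand blend were treated preemergence, and plants at 2–18 cm (1- to 4-leaf stage) in peat-based medium were treated postemergence; compounds were formulated in non-phytotoxic solvent with surfactant. After 13–15 days in greenhouse, response was visually rated against controls, 0 (no effect) to 100 (complete control).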

wild oat (Avena fatua) = experiment: Test B pre-/postemergence plant response
How it was run: as §2

[5] = tested on: Surinam grass (Brachiaria decumbens); experiment: Test B pre-/postemergence plant response
How it was run: as §2

[6] = tested on: cocklebur (Xanthium strumarium); experiment: Test B pre-/postemergence plant response
How it was run: as §2

[7] = tested on: wheat (Triticum aestivum); experiment: Test B pre-/postemergence plant response
How it was run: as §2

[8] = tested on: velvetleaf (Abutilon theophrasti); experiment: Test B pre-/postemergence plant response
How it was run: as §2

kochia (Kochia scoparia) = experiment: Test B pre-/postemergence plant response
How it was run: as §2

[9] = tested on: lambsquarters (Chenopodium album); experiment: Test B pre-/postemergence plant response
How it was run: as §2

soybean (Glycine max) = experiment: Test B pre-/postemergence plant response
How it was run: as §2

[10] = tested on: blackgrass (Alopecurus myosuroides); experiment: Test B pre-/postemergence plant response
How it was run: as §2

[11] = 62 g ai/ha, postemergence, 0 is no effect, 100 is complete control, 13 to 15 days
[12] = Postemergence, 125 g ai/ha, scale 0 to 100 (0 no effect, 100 complete control)
[13] = 31 g ai/ha, postemergence, scale 0 to 100, 0 is no effect, 100 is complete control
[14] = Postemergence, 250 g ai/ha, scale 0 to 100 (0 no effect, 100 complete control)
[15] = Preemergence, 31 g ai/ha, scale 0 to 100 (0 no effect, 100 complete control)
[16] = Preemergence, 62 g ai/ha, scale 0 to 100 (0 no effect, 100 complete control)
[17] = Preemergence, 125 g ai/ha, scale 0 to 100, 0 no effect, 100 complete control
[18] = Preemergence, 250 g ai/ha, 0 to 100 scale

How did the “Windgrass plant response rating (0 to 100 scale)” value [1, 11] turn out when `COCCCn1c(-c2cc(F)cc(F)c2)ncc(C(=O)C2=C(O)CCCC2=O)c1=O` [Compound 120] was run?
Its value is 80.

What about the “Plant response rating, Windgrass” value [1, 12] of the same compound?
The value was 90.

What about the “Plant response rating, Chickweed” value [2, 13] of the same compound?
The value was 60.

What about the “Chickweed plant response rating (0 to 100 scale)” value [2, 11] of the same compound?
Its value is 75.

And the “Plant response rating, Chickweed” value [2, 12]?
Its value is 85.

What about the “Plant response rating, Chickweed” value [2, 14] of the same compound?
The value was 100.

What about the “Plant response rating, Canarygrass” value [3, 13] of the same compound?
Its value is 0.

What about the “Canarygrass plant response rating (0 to 100 scale)” value [3, 11] of the same compound?
Its value is 30.

What about the “Plant response rating, Canarygrass” value [3, 12] of the same compound?
Its value is 55.

What about the “Plant response rating, Canarygrass” value [3, 14] of the same compound?
Its value is 55.

And the “Plant response rating, Pigweed” value [4, 13]?
Its value is 95.

And the “Pigweed plant response rating (0 to 100 scale)” value [4, 11]?
The value was 98.

What about the “Plant response rating, Pigweed” value [4, 12] of the same compound?
The value was 100.

And the “Plant response rating, Pigweed” value [4, 14]?
Its value is 100.

What about the “Plant response rating, Pigweed” value [4, 15] of the same compound?
Its value is 95.

What about the “Plant response rating, Pigweed” value [4, 16] of the same compound?
Its value is 100.

And the “Plant response rating, Pigweed” value [4, 17]?
The value was 100.

What about the “Pigweed plant response rating” value [4, 18] of the same compound?
The value was 100.

And the “Plant response rating, Oat, Wild” value (wild oat (Avena fatua); [13])?
The value was 50.

And the “Oat, Wild plant response rating (0 to 100 scale)” value (wild oat (Avena fatua); [11])?
Its value is 80.

What about the “Plant response rating, Oat, Wild” value (wild oat (Avena fatua); [12]) of the same compound?
Its value is 80.

And the “Plant response rating, Oat, Wild” value (wild oat (Avena fatua); [14])?
The value was 95.

And the “Plant response rating, Oat, Wild” value (wild oat (Avena fatua); [15])?
Its value is 0.

And the “Plant response rating, Oat, Wild” value (wild oat (Avena fatua); [16])?
Its value is 10.

What about the “Plant response rating, Oat, Wild” value (wild oat (Avena fatua); [17]) of the same compound?
The value was 65.

And the “Oat, Wild plant response rating” value (wild oat (Avena fatua); [18])?
The value was 65.

And the “Surinam Grass plant response rating (0 to 100 scale)” value [5, 11]?
Its value is 85.

And the “Plant response rating, Surinam Grass” value [5, 12]?
The value was 100.

And the “Plant response rating, Surinam Grass” value [5, 14]?
The value was 100.

And the “Plant response rating, Surinam Grass” value [5, 15]?
Its value is 100.

And the “Plant response rating, Surinam Grass” value [5, 16]?
The value was 100.

What about the “Plant response rating, Surinam Grass” value [5, 17] of the same compound?
Its value is 100.

And the “Surinam Grass plant response rating” value [5, 18]?
The value was 100.

And the “Plant response rating, Cocklebur” value [6, 13]?
The value was 10.

What about the “Cocklebur plant response rating (0 to 100 scale)” value [6, 11] of the same compound?
Its value is 15.

And the “Plant response rating, Cocklebur” value [6, 12]?
Its value is 25.

And the “Plant response rating, Cocklebur” value [6, 14]?
Its value is 80.

And the “Plant response rating, Cocklebur” value [6, 15]?
The value was 0.

What about the “Plant response rating, Cocklebur” value [6, 16] of the same compound?
Its value is 35.

And the “Plant response rating, Cocklebur” value [6, 17]?
Its value is 60.

What about the “Cocklebur plant response rating” value [6, 18] of the same compound?
Its value is 98.

And the “Wheat plant response rating (0 to 100 scale)” value [7, 11]?
Its value is 40.

What about the “Plant response rating, Wheat” value [7, 12] of the same compound?
Its value is 60.

And the “Plant response rating, Wheat” value [7, 15]?
The value was 0.

What about the “Plant response rating, Wheat” value [7, 16] of the same compound?
The value was 0.

What about the “Plant response rating, Wheat” value [7, 17] of the same compound?
Its value is 25.

And the “Wheat plant response rating” value [7, 18]?
Its value is 30.

And the “Velvetleaf plant response rating (0 to 100 scale)” value [8, 11]?
The value was 95.

And the “Plant response rating, Velvetleaf” value [8, 12]?
Its value is 98.

What about the “Plant response rating, Velvetleaf” value [8, 14] of the same compound?
The value was 100.

And the “Plant response rating, Velvetleaf” value [8, 15]?
Its value is 80.

What about the “Plant response rating, Velvetleaf” value [8, 16] of the same compound?
Its value is 100.

And the “Plant response rating, Velvetleaf” value [8, 17]?
Its value is 100.

What about the “Velvetleaf plant response rating” value [8, 18] of the same compound?
The value was 100.

What about the “Plant response rating, Kochia” value (kochia (Kochia scoparia); [13]) of the same compound?
The value was 10.

And the “Kochia plant response rating (0 to 100 scale)” value (kochia (Kochia scoparia); [11])?
The value was 40.

What about the “Plant response rating, Kochia” value (kochia (Kochia scoparia); [12]) of the same compound?
The value was 80.

And the “Plant response rating, Kochia” value (kochia (Kochia scoparia); [14])?
The value was 98.

And the “Plant response rating, Kochia” value (kochia (Kochia scoparia); [15])?
Its value is 0.

What about the “Plant response rating, Kochia” value (kochia (Kochia scoparia); [16]) of the same compound?
Its value is 20.

What about the “Plant response rating, Kochia” value (kochia (Kochia scoparia); [17]) of the same compound?
Its value is 50.

What about the “Kochia plant response rating” value (kochia (Kochia scoparia); [18]) of the same compound?
The value was 75.

What about the “Plant response rating, Lambsquarters” value [9, 13] of the same compound?
Its value is 80.

And the “Lambsquarters plant response rating (0 to 100 scale)” value [9, 11]?
Its value is 85.

And the “Plant response rating, Lambsquarters” value [9, 12]?
Its value is 98.

What about the “Plant response rating, Lambsquarters” value [9, 14] of the same compound?
The value was 100.

What about the “Plant response rating, Lambsquarters” value [9, 15] of the same compound?
Its value is 100.

What about the “Plant response rating, Lambsquarters” value [9, 16] of the same compound?
Its value is 100.

And the “Plant response rating, Lambsquarters” value [9, 17]?
The value was 100.

What about the “Lambsquarters plant response rating” value [9, 18] of the same compound?
The value was 100.

And the “Soybean plant response rating (0 to 100 scale)” value (soybean (Glycine max); [11])?
Its value is 80.

And the “Plant response rating, Soybean” value (soybean (Glycine max); [12])?
Its value is 95.

And the “Plant response rating, Soybean” value (soybean (Glycine max); [14])?
The value was 98.

And the “Plant response rating, Soybean” value (soybean (Glycine max); [15])?
Its value is 15.

What about the “Plant response rating, Soybean” value (soybean (Glycine max); [16]) of the same compound?
The value was 70.

And the “Plant response rating, Soybean” value (soybean (Glycine max); [17])?
The value was 80.

And the “Soybean plant response rating” value (soybean (Glycine max); [18])?
The value was 80.

What about the “Plant response rating, Blackgrass” value [10, 13] of the same compound?
Its value is 30.

What about the “Blackgrass plant response rating (0 to 100 scale)” value [10, 11] of the same compound?
Its value is 30.

And the “Plant response rating, Blackgrass” value [10, 12]?
Its value is 60.

What about the “Plant response rating, Blackgrass” value [10, 14] of the same compound?
Its value is 60.

What about the “Plant response rating, Blackgrass” value [10, 15] of the same compound?
Its value is 5.

And the “Plant response rating, Blackgrass” value [10, 16]?
Its value is 50.

What about the “Plant response rating, Blackgrass” value [10, 17] of the same compound?
The value was 50.

And the “Blackgrass plant response rating” value [10, 18]?
Its value is 50.
